Results on five compounds are retold here after patent US20220401438A1, “CANCER THERAPEUTIC METHODS” (University Health Network, priority 2021, published 2022).

In data set [1] the test system is cancer cell lines not having gene mutations identified by the CRISPR screen analysis. The data set is described as follows: In vitro combination of itraconazole with lysosome targeting agents. It counts as cell-based. Conditions: for sensitivity of cell lines to itraconazole when treated with the agent: cell lines without the CRISPR-identified mutations.
Data set [2] concerns TOV1946 stably expressing GFP conjugated TFEB. The data set is described as follows: TFEB nuclear translocation. It counts as cell-based. To be noted: CQ 10 μM alone or with Itra 5 μM. The protocol: FIGS. 11A-B. FIG. 11A) Top, analysis of lysosomal pattern by LAMP1 immunofluorescence and relative quantification in TOV21g treated with Itra 5 μM (15)+/−CQ 5 μM (CQ5). Bottom, Analysis of lysosomal function and relative quantification in TOV21g treated as above. FIG. 11B) Analysis and quantification of TFEB nuclear translocation in TOV1946 stably expressing GFP conjugated TFEB and treated with Itra 5 μM (5) +/−CQ 10 μM (CQ10).
Member of the microphtalmia (MiT) family (TFEB, […], TFE3) are transcription factors activated in starvation or lysosomal dysfunction conditions. Once activated, they translocate to the nucleus where they promote the expression of a network of genes related to lysosomal function and biogenesis^50.

Data set [3] can be described thus: Tissue pharmacokinetic analyses (HPLC-MS/MS) of tumour biopsies. It counts as in vivo, human. Conditions: for intratumor concentration (highest): patient HYDRA-005, DL1, on-treatment biopsy; for estimated tissue concentration: patient HYDRA-005 for Itra, assuming 1 μg of tissue corresponds to 1 μl; for detection in tumour biopsies: post-treatment samples, ten patients, none of the pre-treatment samples. Here is the method: Tumour assessment occurred every 8 weeks (+/−1 week) by CT scan. Toxicity was assessed by Common Terminology Criteria (CTCAE) version 4.0. Pre- and on treatment biopsies (on cycle 1, day 8 to 14) were mandatory. Tumour Itra and HCQ concentrations were determined by a HPLC-MS/MS method with itraconazole-D9 and hydroxychloroquine-D4 as the internal standard. The HPLC system was interfaced to a SCIEX TRIPLE QUAD 6500+ mass spectrometer operating in the […] electrospray ionization mode. Data collection, peak integration, and calculation were performed using Analyst® 1.7 software.

Turning to `CO/C1=C\C(C)=C\[C@@H](C)[C@@H](O)[C@@H](C)C/C(C)=C/C=C/[C@H](OC)[C@@H]([C@@H](C)[C@@H](O)[C@H](C)[C@@]2(O)C[C@@H](O)[C@H](C)[C@@H](C(C)C)O2)OC1=O` [Bafilomycin A], the “sensitivity of cell lines to itraconazole when treated with the agent” value in data set [1] was “increased sensitivity to itraconazole”. Further, the “effect of Itra combined with lysosome targeting agent” value in data set [1] (data not shown) is on record as “combined effect”.
Regarding `CCN(CC)CCCC(C)Nc1ccnc2cc(Cl)ccc12` (stereo not shown) [CQ, chloroquine], the “TFEB nuclear translocation, cells” value in data set [2] is reported as “about 50%”.
Turning to `CCN(CCO)CCCC(C)Nc1ccnc2cc(Cl)ccc12` (stereo not shown) [HCQ, hydroxychloroquine], in data set [3], the “intratumor concentration (highest)” value was 3.5 ng/mg of tissue, the estimated tissue concentration is 5 to 10 µM and the “detection in tumour biopsies” value is “detectable in all patients”.
As for `CCC(C)n1ncn(-c2ccc(N3CCN(c4ccc(OCC5COC(Cn6cncn6)(c6ccc(Cl)cc6Cl)O5)cc4)CC3)cc2)c1=O` (stereo not shown) [Itra, Itraconazole], in data set [3], the “intratumor concentration (highest)” value was 0.745 ng/mg of tissue, the estimated tissue concentration was at most 1 µM and the “detection in tumour biopsies” value is “detectable in all patients”.
In the case of `CC/C(=C(\c1ccccc1)c1ccc(OCCN(C)C)cc1)c1ccccc1` [tamoxifen], the “sensitivity of cell lines to itraconazole when treated with the agent” value in data set [1] was “increased sensitivity to itraconazole”.
